# Experimental data from PMC4932537, “Search for Potent and Selective Aurora A Inhibitors Based on General Ser/Thr Kinase Pharmacophore Model” (Pharmaceuticals, 2016).
# Legend:
# [1] = tested on: MDA-MB-453 (mammary adenocarcinoma); assay: MTT cytotoxicity, MDA-MB-453; format: cell-based; details: Homo sapiens; MDA-MB-453, MTT, 72 h
# From the text: (§1) All cells lines were purchased in ATCC (Manassas, VA, USA), except for human primary fibroblasts (HFB), which were a generous gift from Dashinimaev E.B. (Koltsov Institute of Developmental Biology). H1299 (lung adenocarcinoma), H23 (lung adenocarcinoma), Colo320 (colon carcinoma), RS4;11 (acute lymphoblastic leukemia), PC3 (prostate adenocarcinoma) and HL-60 (acute promyelocytic leukemia) were cultivated in RPMI-1640 medium, with addition of 10% fetal calf serum (HyClone, South Logan, Utah, USA) and 2 mM L-Glutamine at 37 °C, 5% CО2. MDA-MB-453 (mammary adenocarcinoma), A549 (lung adenocarcinoma), HCT-116 (colon carcinoma), A431 (epidermoid carcinoma), MDA-MB-231 (mammary adenocarcinoma), BxPC3 (pancreatic adenocarcinoma), MEF (mouse embryonic fibroblasts, SV-40 immortalized), MEF Bax^−/−/Bak^−/− knockout cells (mouse embryonic fibroblasts, SV-40 immortalized, resistant to apoptosis) were cultivated in DMEM medium, with addition of 10% fetal calf serum (HyClone) and 2 mM L-Glutamine at 37 °C, 5% CО2.
# (§2) Cells were seeded in 96-well plates (Corning, NY, USA): 5000 cells per well for adhesive cultures and cells, 25,000 cells per well for suspension cultures. Analyzed substances were added in 0.1–50 μM concentration range, with 2 × dilutions, and incubated for 72 h at 37 °C, 5% CО2. After incubation 20 uL of 5 mg/mL of water solution of 3-(4,5-dimethylthiazol-2-yl)-2,5-diphenyltetrazolium bromide (MTT, PANEKO, Moscow, Russia) was added to the cells and they were incubated for additional 4 h. After the incubation the medium was aspirated, cells were dissolved in 100 uL of DMSO and the optical density was measured at 570 nm with a МultiscanFC plate reader (ThermoScientific, Cambridge, MA, USA). The percentage of surviving cells at each dose was calculated by dividing the optical density of treated cells by the optical density of untreated control (which was taken as 100%). The IC50s were calculated in GraphPad Prism 5.0.
# CYP3A4 = CYP3A4 (Homo sapiens, UniProt P08684); assay: CYP3A4 inhibition; format: in vitro ADME; details: Mean ± SEM
# Sequence of CYP3A4 (P08684 whole entry): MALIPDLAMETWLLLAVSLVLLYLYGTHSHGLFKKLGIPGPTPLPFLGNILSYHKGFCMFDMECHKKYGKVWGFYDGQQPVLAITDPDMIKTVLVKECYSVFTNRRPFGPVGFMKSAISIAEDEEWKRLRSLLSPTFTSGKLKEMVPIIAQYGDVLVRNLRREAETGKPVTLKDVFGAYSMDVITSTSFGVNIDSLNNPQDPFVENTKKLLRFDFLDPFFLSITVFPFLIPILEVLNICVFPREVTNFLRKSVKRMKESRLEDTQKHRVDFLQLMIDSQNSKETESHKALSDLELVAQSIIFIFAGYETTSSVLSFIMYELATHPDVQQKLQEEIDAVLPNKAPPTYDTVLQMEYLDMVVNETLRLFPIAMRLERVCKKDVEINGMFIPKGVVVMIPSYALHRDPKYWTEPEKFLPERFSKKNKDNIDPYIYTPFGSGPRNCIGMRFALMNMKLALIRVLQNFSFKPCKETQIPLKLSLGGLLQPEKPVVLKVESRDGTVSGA
# [2] = tested on: PC3 (prostate adenocarcinoma); assay: MTT cytotoxicity, PC3; format: cell-based; details: 72 h
# From the text: as §1, §2
# [3] = tested on: A431 (epidermoid carcinoma); assay: MTT cytotoxicity, A431; format: cell-based; details: Homo sapiens, A-431, 72 h
# From the text: as §1, §2
# CYP 2C9 = CYP 2C9 (Homo sapiens, UniProt P11712); assay: CYP 2C9 inhibition; format: in vitro ADME; details: Mean ± SEM
# Sequence of CYP 2C9 (P11712 whole entry): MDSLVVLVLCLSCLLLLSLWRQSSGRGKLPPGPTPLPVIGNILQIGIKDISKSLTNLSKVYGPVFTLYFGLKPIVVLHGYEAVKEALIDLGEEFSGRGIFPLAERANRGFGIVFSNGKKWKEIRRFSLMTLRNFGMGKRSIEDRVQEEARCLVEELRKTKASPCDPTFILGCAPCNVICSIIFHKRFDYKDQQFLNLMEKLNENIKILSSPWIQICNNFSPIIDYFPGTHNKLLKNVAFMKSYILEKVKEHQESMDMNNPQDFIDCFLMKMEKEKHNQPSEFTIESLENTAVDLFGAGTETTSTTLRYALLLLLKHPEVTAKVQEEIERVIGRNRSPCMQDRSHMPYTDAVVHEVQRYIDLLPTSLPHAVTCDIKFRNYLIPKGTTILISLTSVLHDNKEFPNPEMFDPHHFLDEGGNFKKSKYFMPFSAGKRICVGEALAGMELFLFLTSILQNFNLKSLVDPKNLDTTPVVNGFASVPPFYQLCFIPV
# Aurora B = Aurora B (Homo sapiens, UniProt Q96GD4); assay: Aurora B kinase inhibition; format: biochemical; details: Table 3; Mean ± SEM
# Sequence of Aurora B (Q96GD4 whole entry): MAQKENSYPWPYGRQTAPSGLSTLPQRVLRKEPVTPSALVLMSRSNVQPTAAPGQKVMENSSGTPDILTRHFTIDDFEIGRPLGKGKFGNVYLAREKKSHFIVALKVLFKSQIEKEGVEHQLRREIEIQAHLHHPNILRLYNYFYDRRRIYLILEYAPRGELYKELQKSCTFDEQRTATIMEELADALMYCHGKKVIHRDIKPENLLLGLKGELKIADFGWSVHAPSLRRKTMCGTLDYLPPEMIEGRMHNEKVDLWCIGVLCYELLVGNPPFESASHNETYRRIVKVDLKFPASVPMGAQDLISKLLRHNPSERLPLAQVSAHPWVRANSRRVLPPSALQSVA
# Aurora A = target: T1, Aurora A (Homo sapiens, UniProt O14965); assay: Aurora A kinase inhibition (biochemical assay); details: Table 2; Mean ± SEM, four repeats; read-out: Aurora A kinase inhibition IC50
# T1 sequence (O14965 1-403): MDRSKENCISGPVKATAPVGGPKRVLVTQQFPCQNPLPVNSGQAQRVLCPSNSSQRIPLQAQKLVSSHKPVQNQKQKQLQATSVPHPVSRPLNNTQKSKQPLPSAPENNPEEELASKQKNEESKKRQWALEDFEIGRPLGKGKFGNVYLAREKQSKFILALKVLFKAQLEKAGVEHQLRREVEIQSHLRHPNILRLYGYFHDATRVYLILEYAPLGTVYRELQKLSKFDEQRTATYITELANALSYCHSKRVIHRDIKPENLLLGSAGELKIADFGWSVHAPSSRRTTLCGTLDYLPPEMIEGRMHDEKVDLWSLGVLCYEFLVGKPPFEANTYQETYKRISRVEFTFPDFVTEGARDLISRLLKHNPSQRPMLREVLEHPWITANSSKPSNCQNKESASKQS
# [4] = MTT cytotoxicity, MEFs Dko; format: cell-based; details: mouse, MEFs Dko (bax−/−bak−/−)
# From the text: as §1, §2
# GSK-3 = GSK-3 kinase selectivity; format: biochemical; details: Mean ± SEM
# [5] = tested on: A-549 (lung adenocarcinoma); assay: MTT cytotoxicity, A-549; format: cell-based; details: Homo sapiens, A549; A-549, MTT, 72 h
# From the text: as §1, §2
# [6] = tested on: BxPC3 (pancreatic adenocarcinoma); assay: MTT cytotoxicity, BxPC3; format: cell-based; details: Homo sapiens, BXPC-3, 72 h
# From the text: as §1, §2
# MTT cytotoxicity, HFB = format: cell-based; details: human, human primary fibroblasts (HFB)
# From the text: as §1, §2
# [7] = tested on: RS4;11 (acute lymphoblastic leukemia); assay: MTT cytotoxicity, RS4;11; format: cell-based; details: Homo sapiens; RS4;11, MTT, 72 h
# From the text: as §1, §2
# [8] = tested on: Colo-320 (colon carcinoma); assay: MTT cytotoxicity, Colo-320; format: cell-based; details: Homo sapiens; Colo-320, MTT, 72 h
# From the text: as §1, §2
# [9] = tested on: HCT-116 (colon carcinoma); assay: MTT cytotoxicity, HCT-116; format: cell-based; details: Homo sapiens; HCT-116, MTT, 72 h
# From the text: as §1, §2
# JNK3 = JNK3 (Homo sapiens, UniProt P53779); assay: JNK3 kinase selectivity; format: biochemical; details: Mean ± SEM
# Sequence of JNK3 (P53779 whole entry, species assumed): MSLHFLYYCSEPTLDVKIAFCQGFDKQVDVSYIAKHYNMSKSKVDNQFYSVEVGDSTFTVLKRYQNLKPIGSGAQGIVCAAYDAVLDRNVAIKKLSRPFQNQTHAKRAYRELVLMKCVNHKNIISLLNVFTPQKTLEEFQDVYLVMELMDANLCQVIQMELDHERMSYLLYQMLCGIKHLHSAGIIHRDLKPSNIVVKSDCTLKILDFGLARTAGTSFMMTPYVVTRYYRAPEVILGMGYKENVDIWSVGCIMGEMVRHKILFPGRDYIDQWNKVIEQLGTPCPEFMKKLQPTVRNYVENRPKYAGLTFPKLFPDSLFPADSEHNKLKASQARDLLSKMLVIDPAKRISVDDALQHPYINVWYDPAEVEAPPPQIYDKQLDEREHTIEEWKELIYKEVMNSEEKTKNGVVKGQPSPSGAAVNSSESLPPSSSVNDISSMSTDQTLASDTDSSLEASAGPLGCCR
# [10] = tested on: H1299 (lung adenocarcinoma); assay: MTT cytotoxicity, H1299; format: cell-based; details: Homo sapiens, NCI-H1299, 72 h
# From the text: as §1, §2
# [11] = tested on: MDA-MB231 (mammary adenocarcinoma); assay: MTT cytotoxicity, MDA-MB231; format: cell-based; details: Homo sapiens, MDA-MB-231, 72 h
# From the text: as §1, §2
# [12] = tested on: HL-60 (acute promyelocytic leukemia); assay: MTT cytotoxicity, HL-60; format: cell-based; details: Homo sapiens; HL-60, MTT, 72 h
# From the text: as §1, §2
# MTT cytotoxicity, MEF WT = format: cell-based; details: mouse
# From the text: as §1, §2
# [13] = Solubility (nephelometry); format: physicochemical; details: kinetic from dmso stock
# [14] = tested on: H23 (lung adenocarcinoma); assay: MTT cytotoxicity, H23; format: cell-based; details: 72 h
# From the text: as §1, §2
# CYP2C19 = CYP2C19 (Homo sapiens, UniProt P33261); assay: CYP2C19 inhibition; format: in vitro ADME; details: Mean ± SEM
# Sequence of CYP2C19 (P33261 whole entry): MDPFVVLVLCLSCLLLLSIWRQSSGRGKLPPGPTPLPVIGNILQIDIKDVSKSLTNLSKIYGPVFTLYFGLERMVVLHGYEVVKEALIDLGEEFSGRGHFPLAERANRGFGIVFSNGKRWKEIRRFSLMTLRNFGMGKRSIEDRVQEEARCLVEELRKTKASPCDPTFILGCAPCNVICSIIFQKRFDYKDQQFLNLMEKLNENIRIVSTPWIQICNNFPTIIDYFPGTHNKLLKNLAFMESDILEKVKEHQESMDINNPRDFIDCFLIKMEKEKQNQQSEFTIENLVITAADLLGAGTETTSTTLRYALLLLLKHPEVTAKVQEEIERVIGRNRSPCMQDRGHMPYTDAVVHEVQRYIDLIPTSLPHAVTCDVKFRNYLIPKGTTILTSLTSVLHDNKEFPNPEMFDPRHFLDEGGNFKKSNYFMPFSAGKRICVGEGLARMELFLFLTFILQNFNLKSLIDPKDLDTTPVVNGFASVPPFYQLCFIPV
# c-Kit = c-Kit (Homo sapiens, UniProt P10721); assay: c-Kit kinase selectivity; format: biochemical; details: Mean ± SEM
# Sequence of c-Kit (P10721 26-976): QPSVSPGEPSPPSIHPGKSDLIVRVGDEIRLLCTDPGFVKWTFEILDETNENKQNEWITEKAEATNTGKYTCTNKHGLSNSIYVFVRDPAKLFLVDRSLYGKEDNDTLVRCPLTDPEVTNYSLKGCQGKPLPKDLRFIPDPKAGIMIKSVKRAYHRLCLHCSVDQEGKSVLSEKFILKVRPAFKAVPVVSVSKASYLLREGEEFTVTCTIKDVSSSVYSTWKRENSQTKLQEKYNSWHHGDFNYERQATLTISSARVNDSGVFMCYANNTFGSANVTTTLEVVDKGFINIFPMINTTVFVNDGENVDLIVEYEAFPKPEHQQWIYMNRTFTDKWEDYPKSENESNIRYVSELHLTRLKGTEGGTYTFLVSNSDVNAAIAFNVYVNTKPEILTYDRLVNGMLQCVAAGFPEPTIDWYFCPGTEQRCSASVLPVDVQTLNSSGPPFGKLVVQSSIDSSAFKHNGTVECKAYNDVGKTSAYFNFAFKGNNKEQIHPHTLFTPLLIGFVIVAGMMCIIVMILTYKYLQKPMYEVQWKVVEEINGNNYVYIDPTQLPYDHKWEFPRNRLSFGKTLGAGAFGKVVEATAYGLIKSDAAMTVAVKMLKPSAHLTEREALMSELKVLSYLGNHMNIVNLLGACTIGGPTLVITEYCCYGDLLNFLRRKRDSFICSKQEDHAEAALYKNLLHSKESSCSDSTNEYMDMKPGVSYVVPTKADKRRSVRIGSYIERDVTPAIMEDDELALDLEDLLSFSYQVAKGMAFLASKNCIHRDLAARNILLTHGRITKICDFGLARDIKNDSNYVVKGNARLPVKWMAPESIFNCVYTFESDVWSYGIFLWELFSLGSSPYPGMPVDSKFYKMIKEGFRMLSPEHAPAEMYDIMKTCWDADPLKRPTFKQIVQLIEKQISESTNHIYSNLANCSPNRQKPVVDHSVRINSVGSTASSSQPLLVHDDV
# CSK = CSK (Homo sapiens, UniProt P41240); assay: CSK kinase selectivity; format: biochemical; details: Mean ± SEM
# RON = RON (Homo sapiens, UniProt Q04912); assay: RON kinase selectivity; format: biochemical; details: Mean ± SEM
# Sequence of RON (Q04912 25-1400, species assumed): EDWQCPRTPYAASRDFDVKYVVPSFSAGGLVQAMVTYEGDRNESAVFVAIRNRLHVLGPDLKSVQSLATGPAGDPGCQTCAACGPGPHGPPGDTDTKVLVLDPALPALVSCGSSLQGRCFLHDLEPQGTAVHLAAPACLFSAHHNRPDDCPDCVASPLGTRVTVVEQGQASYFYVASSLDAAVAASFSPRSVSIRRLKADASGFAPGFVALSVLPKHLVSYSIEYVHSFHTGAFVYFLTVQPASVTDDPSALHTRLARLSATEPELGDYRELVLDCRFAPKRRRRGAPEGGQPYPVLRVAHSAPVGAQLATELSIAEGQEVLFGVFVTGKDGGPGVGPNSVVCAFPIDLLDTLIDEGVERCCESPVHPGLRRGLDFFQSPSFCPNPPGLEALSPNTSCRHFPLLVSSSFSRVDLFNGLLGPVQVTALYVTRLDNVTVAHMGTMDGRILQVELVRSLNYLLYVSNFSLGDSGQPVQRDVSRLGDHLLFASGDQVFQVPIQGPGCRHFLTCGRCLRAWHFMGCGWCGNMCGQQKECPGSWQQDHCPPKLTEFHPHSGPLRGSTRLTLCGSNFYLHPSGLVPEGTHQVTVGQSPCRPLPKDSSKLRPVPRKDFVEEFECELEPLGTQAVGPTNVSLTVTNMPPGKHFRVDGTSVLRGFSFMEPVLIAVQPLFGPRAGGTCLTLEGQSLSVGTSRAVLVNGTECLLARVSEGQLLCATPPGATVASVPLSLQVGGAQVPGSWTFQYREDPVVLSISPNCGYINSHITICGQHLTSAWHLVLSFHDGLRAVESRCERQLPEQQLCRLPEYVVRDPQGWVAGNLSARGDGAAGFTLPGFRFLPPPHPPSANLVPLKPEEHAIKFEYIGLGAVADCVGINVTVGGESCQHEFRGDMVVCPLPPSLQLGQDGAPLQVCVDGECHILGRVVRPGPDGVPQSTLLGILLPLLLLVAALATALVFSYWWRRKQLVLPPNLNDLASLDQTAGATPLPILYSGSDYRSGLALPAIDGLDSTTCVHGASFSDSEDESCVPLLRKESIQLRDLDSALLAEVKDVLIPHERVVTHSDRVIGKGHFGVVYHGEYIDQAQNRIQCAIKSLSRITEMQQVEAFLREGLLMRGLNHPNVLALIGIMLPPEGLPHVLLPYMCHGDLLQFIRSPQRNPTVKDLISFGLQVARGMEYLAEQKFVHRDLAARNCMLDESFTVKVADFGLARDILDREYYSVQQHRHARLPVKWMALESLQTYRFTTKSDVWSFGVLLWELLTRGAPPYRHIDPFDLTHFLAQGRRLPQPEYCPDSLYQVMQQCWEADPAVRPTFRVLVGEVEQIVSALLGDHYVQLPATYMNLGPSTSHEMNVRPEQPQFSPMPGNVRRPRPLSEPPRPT
# LYN = LYN (Homo sapiens, UniProt P07948); assay: LYN kinase selectivity; format: biochemical; details: Mean ± SEM
# EPHA2 = EPHA2 (Homo sapiens, UniProt P29317); assay: EPHA2 kinase selectivity; format: biochemical; details: Mean ± SEM
Compound,IC50 [1] [µM],IC50 (CYP3A4) [µM],IC50 [2] [µM],IC50 [3] [µM],IC50 (CYP 2C9) [µM],IC50 (Aurora B) [µM],IC50 (Aurora A) [µM],IC50 at 48 h [4] [µM],IC50 (GSK-3) [µM],IC50 [5] [µM],IC50 [6] [µM],"IC50 at 72 h (MTT cytotoxicity, HFB) [µM]",IC50 [7] [µM],IC50 [8] [µM],IC50 [9] [µM],IC50 (JNK3) [µM],IC50 [10] [µM],IC50 [11] [µM],IC50 [12] [µM],solubility [13] [µg/mL],further results
"Cc1cc(Nc2ccnc(CC3CCN(C(=O)c4cccc(Cl)c4F)CC3)n2)[nH]n1 [Compound 16, (3-Chloro-2-fluoro-phenyl)-{4-[4-(5-methyl-2H-pyrazol-3-ylamino)-pyrimidin-2-ylmethyl]-piperidin-1-yl}-methanone]",12 ± 1.2,0.596 ± 0.0601,8.3 ± 0.8,9 ± 1,0.327 ± 0.033,4.182 ± 0.0401,0.0035 ± 0.00029,4.5 ± 0.5,0.293 ± 0.0312,8.8 ± 0.9,8.1 ± 0.8,3.3 ± 0.3,0.3 ± 0.02,1.2 ± 0.03,4.2 ± 0.4,0.572 ± 0.0561,1.5 ± 0.12,> 50,> 50,> 100,"IC50 at 48 h (MTT cytotoxicity, MEF WT): 0.9 ± 0.1 µM; IC50 [14]: > 50 µM; IC50 (CYP2C19): 0.966 ± 0.0941 µM"
"Cc1cc(Nc2ccn[nH]2)nc(CC2CCN(C(=O)c3cccc(Cl)c3F)CC2)n1 [Compound 14, (3-Chloro-2-fluoro-phenyl)-{4-[4-methyl-6-(2H-pyrazol-3-ylamino)-pyrimidin-2-ylmethyl]-piperidin-1-yl}-methanone]",,15.1 ± 0.151,,,3.9 ± 0.401,18.3,0.0053 ± 0.00046,,0.109 ± 0.0121,,,,,,,1.63 ± 0.167,,,,> 100,melting point: 125 to 128 °C; IC50 (c-Kit): 21 µM; IC50 (CYP2C19): 9.6 ± 0.96 µM
"Cc1cc(Nc2ncc(Cl)s2)nc(CC2CCN(C(=O)c3cccc(Cl)c3F)CC2)n1 [Compound 13, (3-Chloro-2-fluoro-phenyl)-{4-[4-(5-chloro-thiazol-2-ylamino)-6-methyl-pyrimidin-2-ylmethyl]-piperidin-1-yl}-methanone]",8 ± 0.79,,3.9 ± 0.4,6.1 ± 0.7,,0.232 ± 0.0241,0.0041 ± 0.00035,3.6 ± 0.3,,5.1 ± 0.4,2.4 ± 0.14,2.8 ± 0.3,1.1 ± 0.11,1 ± 0.11,4.4 ± 0.5,0.0852 ± 0.0091,1.1 ± 0.1,10.5 ± 1.1,20.9 ± 2.1,< 10,"IC50 (CSK): 9.5 ± 0.101 µM; melting point: 221 to 223 °C; IC50 (c-Kit): 17 µM; IC50 (RON): 0.97 ± 0.101 µM; IC50 (LYN): 3.27 ± 0.324 µM; IC50 at 48 h (MTT cytotoxicity, MEF WT): 2.5 ± 0.3 µM; IC50 (EPHA2): 9 ± 0.985 µM; IC50 [14]: 1.2 ± 0.09 µM"
